Results: paper PMC6727465, “Discovery of 2-phenoxyacetamides as inhibitors of the Wnt-depalmitoleating enzyme NOTUM from an X-ray fragment screen” (MedChemComm, 2019)
Values after ≈ are worked out from the molar mass of the structure shown. Like-named read-outs stand apart in the source and are kept apart here.

Tests used:
[1] = test system: Wnt/β-catenin signaling pathway TCF/LEF reporter (luciferase) HEK293 cell line with exogenous Wnt3a and NOTUM; assay: cells; assay type: cell-based; settings: for EC50: Wnt3a 100 ng mL^–1, NOTUM 500 ng mL^–1, n = 4, read-out: TCF/LEF reporter EC50, activation of Wnt signaling via inhibition of NOTUM
[2] = Metabolic stability in human liver microsomes; assay type: in vitro ADME; settings: NADPH independent metabolism
Text: (§1) Selected compounds were screened for aqueous solubility, transit performance in MDCK-mdr1 cell
(§2) lines for permeability, and metabolic stability in human and mouse liver microsomes as a measure of
(§3) ADME studies reported in this work were independently performed by GVK Biosciences (Hyderabad,
(§4) India) and/or Cyprotex (Macclesfield, UK).
(§5) Cyptotex, UK. See: https://www.cyprotex.com/admepk
(§6) GVK Biosciences, India. See: https://www.gvkbio.com/discovery-services/biology-services/dmpk-
(§7) The MDCK-mdr1 cell line used in these experiments was supplied to GVK Biosciences from SOLVO

[3] = Metabolic stability in mouse liver microsomes; assay type: in vitro ADME; settings: NADPH independent metabolism; for half-life: mouse
Text: as §1, §2, §3, §4, §5, §6, §7

[4] = Aqueous thermodynamic solubility; assay type: physicochemical; settings: aqueous medium (not further specified), thermodynamic from solid
Text: as §1, §2, §3, §4, §5, §6, §7

[5] = MDCK-mdr1 cell permeability; assay type: in vitro ADME; settings: dog
Text: as §1, §2, §3, §4, §5, §6, §7

[6] = test system: MDCK-mdr1 cell line; assay: MDCK-mdr1 cell permeability; assay type: in vitro ADME; settings: MDCK-mdr1
Text: as §1, §2, §3, §4, §5, §6, §7

[7] = Hydrolytic stability in buffer systems; assay type: physicochemical; settings: three buffer systems (pH 4, 7.4, 10), time points up to 18 h, UPLC-MS

**Q.** Which EC50 ([1]; Homo sapiens, HEK293) does the source give for `Cc1ccccc1OCC(=O)Nc1ccc2cn(C(C)C)nc2c1` [Compound 38] here?
**A.** ~934 nM

**Q.** What about the inhibition at 3 µM ([1]; Homo sapiens, HEK293, at 3 μM) of the same compound?
**A.** 60%

**Q.** What about the half-life [2] of the same compound?
**A.** 5.1 min

**Q.** And the half-life ([3]; liver microsomes)?
**A.** 5.7 min

**Q.** For `Cc1ccccc1OCC(=O)Nc1ccc2nn[nH]c2c1` [Compound 39], which half-life ([3]; liver microsomes) is on record?
**A.** 1.8 min

**Q.** For `Cc1ccccc1OCC(=O)Nc1ccc2cnccc2c1` [Compound 45], which half-life [2] is on record?
**A.** 12.1 min

**Q.** And the half-life ([3]; liver microsomes)?
**A.** 11 min

**Q.** Which half-life ([3]; mouse liver microsomes) does the source give for `Cc1ccccc1N(C)CC(=O)Nc1ccc2cnn(C)c2c1` [Compound 53] here?
**A.** 5.2 min

**Q.** For `CCn1cc2ccc(NC(=O)COc3ccccc3C)cc2n1` [Compound 37], which EC50 ([1]; Homo sapiens, HEK293) is on record?
**A.** 386 ± 199 nM

**Q.** Which solubility thermodynamic [4] does the source give for `Cc1ccccc1OCC(=O)Nc1ccc2cnn(C)c2c1` [Compound 34] here?
**A.** 2 µg/mL (≈ 6.77 µM)

**Q.** And the Papp A→B ([5]; MDCK-mdr1, AB)?
**A.** 5.1 ×10⁻⁶ cm/s

**Q.** What about the Papp B→A ([5]; MDCK-mdr1, BA) of the same compound?
**A.** 6.6 ×10⁻⁶ cm/s

**Q.** What about the P-gp mediated efflux [6] of the same compound?
**A.** no evidence of P-gp mediated efflux

**Q.** And the half-life [2]?
**A.** 11.6 min

**Q.** And the “MLM (t1/2 min)” value [3]?
**A.** Not detected ^a

**Q.** What about the Hydrolytic stability [7] of the same compound?
**A.** only parent was detected

**Q.** Which half-life ([3]; liver microsomes) does the source give for `Cc1ccccc1OCC(=O)Nc1cccnc1` [Compound 3, 2-(2-methylphenoxy)-N-(pyridine-3-yl)acetamide] here?
**A.** 1.1 min

**Q.** With `Cc1ccccc1OCC(=O)Nc1cnccn1` [Compound 22] as the compound, how does the “MLM (t1/2 min)” value [3] read?
**A.** Not detected ^a

**Q.** For `Cc1ccccc1OCC(=O)Nc1ccc2nccnc2c1` [Compound 27], which “Response in TCF/LEF reporter assay” value [1] is on record?
**A.** supramaximal response

**Q.** For `Cc1ccccc1OCC(=O)N1CCc2ccccc2C1` [Compound 54], which “MLM (t1/2 min)” value [3] is on record?
**A.** Not detected ^a

**Q.** With `Cc1ccccc1OCC(=O)Nc1ccc2cn(C)nc2c1` [Compound 35] as the compound, how does the “Response in TCF/LEF reporter assay” value ([1]; dual activity: NOTUM inhibition and stabilizers of luciferase enzyme) read?
**A.** supramaximal response

**Q.** Which half-life ([3]; liver microsomes) does the source give for `O=C(COc1ccccc1Cl)Nc1ccc2cnccc2c1` [Compound 50] here?
**A.** 3.3 min
